{
  "source": "paper PMC4111740",
  "about": "“Ligand-Based Pharmacophore Modeling and Virtual Screening for the Discovery of Novel 17β-Hydroxysteroid Dehydrogenase 2 Inhibitors” (Journal of Medicinal Chemistry, 2014)",
  "key": {"17β-HSD1": {"target": "T1, 17β-HSD1 (Homo sapiens, UniProt P14061)", "T1 construct": "expressed in transfected cells; host or cells: HEK-293 (transient, calcium phosphate), lysate", "T1 sequence (P14061 1-328)": "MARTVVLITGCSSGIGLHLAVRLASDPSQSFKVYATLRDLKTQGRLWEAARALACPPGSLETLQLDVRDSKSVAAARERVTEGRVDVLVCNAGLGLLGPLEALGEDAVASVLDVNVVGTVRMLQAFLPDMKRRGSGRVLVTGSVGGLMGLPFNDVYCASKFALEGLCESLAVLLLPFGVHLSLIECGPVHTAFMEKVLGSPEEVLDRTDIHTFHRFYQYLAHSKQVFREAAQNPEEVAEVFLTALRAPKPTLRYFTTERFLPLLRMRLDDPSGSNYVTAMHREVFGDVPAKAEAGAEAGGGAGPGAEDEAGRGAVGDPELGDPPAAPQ", "assay": "17β-HSD1 activity in HEK-293 cell lysates", "assay_type": "biochemical", "conditions": "ratio of IC50 values", "description": "HEK-293 cells were transfected by the calcium phosphate precipitation method with plasmids for human 17β-HSD1, 17β-HSD2, or 11β-HSD2. Cells were cultivated for 48 h, washed with phosphate-buffered saline, and centrifuged for 4 min at 150g. After removal of the supernatants, cell pellets were snap frozen in dry ice and stored at −80 °C until further use.\nLysates of human embryonic kidney cells (HEK-293) expressing either 17β-HSD1 or 17β-HSD2 were incubated for 10 min at 37 °C in TS2 buffer in a final volume of 22 μL containing either solvent (0.2% DMSO/chloroform) or the inhibitor at the respective concentration. N-(3-Methoxyphenyl)-N-methyl-5-m-tolylthiophene-2-carboxamide (compound 19 in ref ([26])) and apigenin[50] were used as positive controls for 17β-HSD1 and 17β-HSD2, respectively, in all experiments. 17β-HSD1 activity was measured in the presence of 190 nM unlabeled estrone, 10 nM radiolabeled estrone, and 500 μM NADPH. In contrast, 17β-HSD2 activity was determined in the presence of 190 nM unlabeled estradiol, 10 nM radiolabeled estradiol, and 500 μM NAD^+. Reactions were stopped after 10 min by adding an excess of unlabeled estradiol and estrone (1:1, 2 mM in methanol). Possible promiscuous enzyme inhibition by aggregate formation of the chemicals was excluded by measuring the inhibition of the enzyme activity by the compounds in the presence of 0.1% Triton X-100.[36] […]"}, "17β-HSD3": {"target": "T2, 17β-HSD3 (Homo sapiens, UniProt P37058)", "T2 construct": "expressed in transfected cells; host or cells: HEK-293 (transient, calcium phosphate), intact cells", "T2 sequence (P37058 1-310)": "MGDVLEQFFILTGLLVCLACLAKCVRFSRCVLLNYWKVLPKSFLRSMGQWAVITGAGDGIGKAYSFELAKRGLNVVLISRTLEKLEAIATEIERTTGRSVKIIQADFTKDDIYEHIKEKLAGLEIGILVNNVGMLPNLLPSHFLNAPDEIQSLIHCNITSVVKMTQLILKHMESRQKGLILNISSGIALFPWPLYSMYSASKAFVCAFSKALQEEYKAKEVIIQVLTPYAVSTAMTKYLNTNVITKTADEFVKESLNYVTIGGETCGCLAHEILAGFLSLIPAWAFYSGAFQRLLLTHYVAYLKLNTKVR", "assay": "17β-HSD3 activity in intact transfected HEK-293 cells", "assay_type": "cell-based", "conditions": "for 17β-HSD3 intact inhibition class (n.i.): rest activity at 20 μM, Table 3", "description": "(§1) Human embryonic kidney cells (HEK-293) were cultivated in DMEM containing 4.5 g/L glucose, 10% fetal bovine serum, 100 U/mL penicillin, 0.1 mg/mL streptomycin, 1× MEM nonessential amino acids, and 10 mM HEPES buffer, pH 7.4. The cells were incubated at 37 °C until 80% confluency. The cells were transfected using the calcium phosphate method with expression plasmids for 17β-HSD2 and 17β-HSD3. After 24 h, the cells were trypsinized and seeded on poly-L-lysine-coated 96-well plates (15 000 cells/well).\n(§2) The inhibitory activities were measured 24 h after seeding as follows: old medium was aspirated and replaced by 30 μL of charcoal-treated DMEM (cDMEM). Ten microliters of inhibitor dissolved in cDMEM into the respective concentration was added, and mixtures were preincubated at 37 °C for 20 min. 17β-HSD2 inhibitory activities were measured in the presence of 190 nM unlabeled estradiol and 10 nM radiolabeled estradiol. N-(3-Methoxyphenyl)-N-methyl-5-m-tolylthiophene-2-carboxamide (compound 19 in ref ([26])) was used as positive control. The reaction mixtures were incubated for 20 min, and the reactions were stopped by adding an excess of estradiol and estrone (1:1, 2 mM in methanol) to the mixture.\n17β-HSD3 inhibitory activities were measured in the presence of 190 nM unlabeled androstenedione and 10 nM radiolabeled androstenedione. Benzophenone-1 was used as positive control. The reaction mixtures were incubated for 30 min, and the reactions were stopped by adding an excess of androstenedione and testosterone (1:1, 2 mM in methanol). The steroids were separated by TLC, followed by scintillation counting and calculation of substrate concentration. Data was obtained from three independent measurements."}, "11β-HSD1": {"target": "T3, 11β-HSD1 (Homo sapiens, UniProt P28845)", "T3 construct": "expressed in transfected cells", "T3 sequence (P28845 whole entry)": "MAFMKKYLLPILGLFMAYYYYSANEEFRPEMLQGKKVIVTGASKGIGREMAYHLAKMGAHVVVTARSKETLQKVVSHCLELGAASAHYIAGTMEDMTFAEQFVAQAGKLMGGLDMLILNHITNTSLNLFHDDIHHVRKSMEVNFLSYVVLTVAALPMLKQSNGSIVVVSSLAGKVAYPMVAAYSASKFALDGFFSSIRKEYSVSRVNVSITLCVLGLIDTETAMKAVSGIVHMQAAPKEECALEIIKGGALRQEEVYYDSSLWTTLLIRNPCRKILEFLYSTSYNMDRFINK", "assay": "11β-HSD1 activity in lysates of stably transfected cells", "assay_type": "biochemical", "conditions": "for 11β-HSD1 versus 17β-HSD2 potency (in words): lysates", "description": "The methods to determine 11β-HSD1 and -2 activity were performed as described previously.[64] Briefly, lysates of stably transfected cells, expressing either 11β-HSD1 or 11β-HSD2, were incubated for 10 min at 37 °C in TS2 buffer in a final volume of 22 μL containing either solvent (0.2% DMSO) or the inhibitor at the respective concentration. The nonselective 11β-HSD inhibitor glycyrrhetinic acid was used as positive control. Activity measurements of 11β-HSD1 were performed with 190 nM unlabeled cortisone, 10 nM radiolabeled cortisone, and 500 μM NADPH. To measure 11β-HSD2 activity, lysates were incubated with 40 nM unlabeled cortisol, 10 nM radiolabeled cortisol, and 500 μM NAD^+. Reactions were stopped after 10 min by adding an excess of unlabeled cortisone and cortisol (1:1, 2 mM in methanol). The steroids were separated by TLC, followed by scintillation counting and calculation of substrate concentration. Data were collected from at least three independent measurements."}, "17β-HSD2": {"target": "T4, 17β-HSD2 (Homo sapiens, UniProt P37059)", "T4 construct": "expressed in transfected cells; host or cells: HEK-293 (transient, calcium phosphate), lysate", "T4 sequence (P37059 1-387)": "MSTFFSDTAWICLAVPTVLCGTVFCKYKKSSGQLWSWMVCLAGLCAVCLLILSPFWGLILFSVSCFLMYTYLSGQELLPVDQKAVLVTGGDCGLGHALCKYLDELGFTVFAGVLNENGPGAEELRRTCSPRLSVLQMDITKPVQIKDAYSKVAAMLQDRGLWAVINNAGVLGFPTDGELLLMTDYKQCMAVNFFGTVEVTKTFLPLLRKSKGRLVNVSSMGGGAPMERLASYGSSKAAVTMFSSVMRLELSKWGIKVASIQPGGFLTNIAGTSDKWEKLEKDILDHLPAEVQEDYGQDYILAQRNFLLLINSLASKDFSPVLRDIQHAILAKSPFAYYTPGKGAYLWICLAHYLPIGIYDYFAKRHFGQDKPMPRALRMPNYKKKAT", "assay": "17β-HSD2 activity in intact transfected HEK-293 cells", "assay_type": "cell-based", "conditions": "intact HEK-293 cells", "description": "as §1, §2"}},
  "note": "Entries after “also recorded” stand apart in the source; their conditions may differ.",
  "data": [
    {"smiles": "Cc1cc(S(=O)(=O)Nc2cccc(O)c2)c(C)cc1Cl", "note": "[Compound 22]", "values": [
      {"measurement": "selectivity: more active toward 17β-HSD2 than 17β-HSD1", "setting": "17β-HSD1", "result": 18, "unit": "fold"},
      {"measurement": "17β-HSD3 inhibition (in words)", "setting": "17β-HSD3; intact cells", "result": "weak 17β-HSD3 inhibitors"}
    ]},
    {"smiles": "COc1ccc(S(=O)(=O)Nc2cccc(O)c2)c2c1CCCC2", "note": "[Compound 23]", "values": [
      {"measurement": "11β-HSD1 versus 17β-HSD2 potency (in words)", "setting": "11β-HSD1", "result": "almost equipotent toward 17β-HSD2 and 11β-HSD1; also recorded: equipotent 17β-HSD2 and 11β-HSD1 inhibitors"},
      {"measurement": "17β-HSD3 intact inhibition class (n.i.)", "setting": "17β-HSD3", "result": "n.i"}
    ]},
    {"smiles": "COc1ccc(S(=O)(=O)Nc2ccc(O)c3c2CCCC3)cc1", "note": "[Compound 20]", "values": [
      {"measurement": "11β-HSD1 versus 17β-HSD2 potency (in words)", "setting": "11β-HSD1", "result": "almost equipotent toward 17β-HSD2 and 11β-HSD1; also recorded: equipotent 17β-HSD2 and 11β-HSD1 inhibitors"},
      {"measurement": "17β-HSD3 intact inhibition class (n.i.)", "setting": "17β-HSD3", "result": "n.i"}
    ]},
    {"smiles": "CC(C)(C)c1ccc(S(=O)(=O)Oc2ccccc2O)cc1", "note": "[Compound 12]", "values": [
      {"measurement": "17β-HSD2 inhibition in intact cells (in words)", "setting": "17β-HSD2", "result": "concentration-dependently inhibited 17β-HSD2"},
      {"measurement": "selectivity 11β-HSD1 against 17β-HSD2", "setting": "11β-HSD1; ratio of IC50 values", "result": 9, "unit": "fold"},
      {"measurement": "selectivity 17β-HSD3 against 17β-HSD2", "setting": "17β-HSD3; ratio of IC50 values", "result": 35, "unit": "fold"}
    ]}
  ]
}
